Measured values: patent US20070117743A1, “New antitumoral compounds” (priority 2003, published 2007)
Read-outs that look alike come from different tables or passages of the source. Where a SMILES comes first, the peptide text is derived from it. Bridges are numbered along the chain shown (N, C = ends). [ ]: non-standard residue; d: D form. The star is where a group is joined. Hexanoyl(4S-Me) = CC[C@H](C)CCC(=O)*; d(aIle) = CC[C@H](C)[C@@H](N)C(=O)O; d(aThr) = C[C@@H](O)[C@@H](N)C(=O)O; dTic = O=C(O)[C@H]1Cc2ccccc2CN1; Orn = NCCC[C@H](N)C(=O)O; Dhb = C/C=C(\N)C(=O)O

Tests used:
Assay type in all cases: cell-based, human
A-549 = assay: SRB colorimetric assay of cell growth and viability, A-549; conditions: 48 hours exposure; for GI50: read-out: GI50 A-549; for CC50: read-out: LC50 A-549
HT-29 = assay: SRB colorimetric assay of cell growth and viability, HT-29; conditions: 48 hours exposure; for GI50: read-out: GI50 HT-29; for CC50: read-out: LC50 HT-29
IGROV-1 = assay: SRB colorimetric assay of cell growth and viability, IGROV-1; conditions: 48 hours exposure, SRB
LoVo = assay: SRB colorimetric assay of cell growth and viability, LoVo; conditions: 48 hours exposure; for CC50: read-out: LC50 LOVO
DU-145 = assay: SRB colorimetric assay of cell growth and viability, DU-145; conditions: 48 hours exposure, SRB
LNCaP = assay: SRB colorimetric assay of cell growth and viability, LNCaP; conditions: 48 hours exposure, SRB; for GI50: read-out: GI50 LN-caP; for CC50: read-out: LC50 LN-caP
Excerpt: The finality of this assay is to interrupt the growth of a “in vitro” tumor cell culture by means a continued exhibition of the cells to the sample to be testing.
This form of the assay employs 96 well cell culture microplates of 9 mm diameter (Faircloth, 1988; Mosmann, 1983). Most of the cell lines are obtained from American Type Culture Collection (ATCC) derived from different human cancer types.
Cells are maintained in RPMI 1640 10% FBS, supplemented with 0.1 g/l penicillin and 0.1 g/l streptomycin sulfate and then incubated at 37° C., 5% CO2 and 98% humidity. For the experiments, cells were harvested from subconfluent cultures using trypsin and resuspended in fresh medium before plating.
Cells are seeded in 96 well microtiter plates, at 5×10^3 cells per well in aliquots of 195 μL medium, and they are allowed to attach to the plate surface by growing in drug free medium for 18 hours. Afterward, samples are added in aliquots of 5 μL in a ranging from 10 to 10^−8 μg/mL, dissolved in DMSO:EtOH:PBS (0.5:0.5:99). After 48 hours exposure, the antitumor effect are measured by the SRB methodology: cells are fixed by adding 50 μL of cold 50% (wt/vol) trichloroacetic acid (TCA) and incubating for 60 minutes at 4° C. Plates are washed with deionized water and dried. One hundred μL of SRB solution (0.4% wt/vol in 1% acetic acid) is added to each microtiter well and incubated for 10 minutes at room temperature. Unbound SRB is removed by washing with 1% acetic acid. Plates are air dried and bound stain is solubilized with Tris buffer. Optical densities are read on a automated spectrophotometric plate reader at a single wavelength of 490 nm.
The values for mean+/− SD of data from triplicate wells are calculated. Some parameters for cellular responses can be calculated: GI=growth inhibition, TGI=total growth inhibition (cytostatic effect) and LC=cell killing (cytotoxic effect).

LoVo-Dox = assay: SRB colorimetric assay of cell growth and viability, LoVo-Dox; conditions: 48 hours exposure; for CC50: read-out: LC50 LOVO-DOX
Summary of the method: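 Continuous 48-hour exposure of cells plated at 5×10^3 per well, with compounds diluted in DMSO:EtOH:PBS (0.5:0.5:99) over 10 to 10^−8 μg/mL. Staining with SRB and reading at 490 nm give GI, TGI and LC.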

HeLa-APL = assay: SRB colorimetric assay of cell growth and viability, HeLa-APL; conditions: 48 hours exposure; for CC50: read-out: LC50 HELA-APL
K-562 = assay: SRB colorimetric assay of cell growth and viability, K-562; conditions: 48 hours exposure; for CC50: read-out: LC50 K-562
HeLa = assay: SRB colorimetric assay of cell growth and viability, HeLa; conditions: 48 hours exposure; for CC50: read-out: LC50 HELA
PANC-1 = assay: SRB colorimetric assay of cell growth and viability, PANC-1; conditions: 48 hours exposure; for CC50: read-out: LC50 PANC-1
IGROV-ET = assay: SRB colorimetric assay of cell growth and viability, IGROV-ET; conditions: 48 hours exposure, SRB; for CC50: read-out: LC50 IGROV-ET
SK-MEL-28 = assay: SRB colorimetric assay of cell growth and viability, SK-MEL-28; conditions: 48 hours exposure, SRB; for CC50: read-out: LC50 MEL-28

## C/C=C1\NC(=O)[C@H](Cc2ccccc2)NC(=O)[C@@H](C(C)C)NC(=O)[C@@H]([C@@H](C)CC)NC(=O)[C@H](NC(=O)[C@H](NC(=O)[C@H](CCCC[N+](C)(C)C)NC(=O)[C@H]2CCCN2C(=O)[C@H](NC(=O)[C@@H](NC(=O)[C@@H](NC(=O)[C@H](NC(=O)CC[C@@H](C)CC)C(C)C)[C@@H](C)O)C(C)C)C(C)C)[C@@H](C)CC)[C@@H](C)OC(=O)[C@H](C(C)C)NC1=O [Compound 93, [N^ε(Me)3-Lys^8, (4S)-MeHex^14]-KF]
A-549; SRB
  TGI A-549: 6.97E−07 Molar
  GI50: 0.186 µM
  CC50: 2.44 µM
HT-29; SRB
  TGI HT-29: 2.72E−07 Molar
  GI50: 0.168 µM
  CC50: 0.439 µM
IGROV-1
  GI50: 0.214 µM
  LC50 (concentration causing 50% net cell killing): 0.866 µM
  TGI IGROV: 3.90E−08 Molar
LoVo; SRB
  GI50: 0.0808 µM
  TGI LOVO: 2.08E−07 Molar
  CC50: 0.537 µM
DU-145
  GI50: 0.00621 µM
  LC50 (concentration causing 50% net cell kill): 0.044 µM
  TGI DU-145: 1.66E−08 Molar
LNCaP
  TGI LN-caP: 2.16E−06 Molar
  GI50: 0.795 µM
  CC50: 5.88 µM
LoVo-Dox; SRB
  GI50: 0.0782 µM
  TGI LOVO-DOX: 1.82E−07 Molar
  CC50: 0.426 µM
HeLa-APL; SRB
  GI50: 0.651 µM
  TGI HELA-APL: 1.43E−06 Molar
  CC50: 3.15 µM
K-562; SRB
  GI50: 1.49 µM
  TGI K-562: 2.72E−06 Molar
  CC50: 4.94 µM
HeLa; SRB
  GI50: 0.491 µM
  TGI HELA: 1.25E−06 Molar
  CC50: 3.25 µM
PANC-1; SRB
  GI50: 1.11 µM
  TGI PANC-1: 2.08E−06 Molar
  CC50: 3.9 µM
IGROV-ET
  GI50: 0.266 µM
  TGI IGROV-ET: 7.17E−07 Molar
  CC50: 2.49 µM
SK-MEL-28
  GI50: 0.32 µM
  TGI MEL-28: 9.51E−07 Molar
  CC50: 2.6 µM

## C/C=C1\NC(=O)[C@H](Cc2ccccc2)NC(=O)[C@@H](C(C)C)NC(=O)[C@@H]([C@@H](C)CC)NC(=O)[C@H](NC(=O)[C@H](NC(=O)[C@H](CCCN)NC(=O)[C@H]2Cc3ccccc3CN2C(=O)[C@H](NC(=O)[C@@H](NC(=O)[C@@H](NC(=O)[C@H](NC(=O)CC[C@@H](C)CC)C(C)C)[C@@H](C)O)C(C)C)C(C)C)[C@@H](C)CC)[C@@H](C)OC(=O)[C@H](C(C)C)NC1=O [Compound 61, [D-Tic^9, (4S)-MeHex^14]-KF] ({Hexanoyl(4S-Me)}-[dV]TV[dV][dTic][Orn][d(aIle)][d(aThr)][d(aIle)][dV]F[Dhb]V; ester 8-C)
A-549; A-549
  TGI A-549: 6.49E−06 Molar
  GI50: 2.87 µM
  CC50: ≥ 6.49 µM
HT-29; HT-29
  TGI HT-29: 2.25E−06 Molar
  GI50: 1.18 µM
  CC50: 4.26 µM
IGROV-1
  GI50: 1.36 µM
  LC50 (concentration causing 50% net cell killing): 5.98 µM
  TGI IGROV: 2.86E−06 Molar
LoVo; LOVO
  GI50: 1.2 µM
  TGI LOVO: 2.65E−06 Molar
  CC50: 5.83 µM
DU-145
  GI50: 1.72 µM
  LC50 (concentration causing 50% net cell kill): ≥ 6.49 µM
  TGI DU-145: 4.24E−06 Molar
LNCaP
  TGI LN-caP: 2.40E−06 Molar
  GI50: 0.921 µM
  CC50: 6.26 µM
LoVo-Dox; LOVO-DOX
  GI50: 1.17 µM
  TGI LOVO-DOX: 2.71E−06 Molar
  CC50: 6.28 µM
HeLa-APL; HELA-APL
  GI50: 4.93 µM
  TGI HELA-APL: 6.49E−06 Molar
  CC50: ≥ 6.49 µM
K-562; K-562
  GI50: ≥ 6.49 µM
  TGI K-562: 6.49E−06 Molar
  CC50: ≥ 6.49 µM
HeLa; HELA
  GI50: 3.48 µM
  TGI HELA: 6.49E−06 Molar
  CC50: ≥ 6.49 µM
PANC-1; PANC-1
  GI50: ≥ 6.49 µM
  TGI PANC-1: 6.49E−06 Molar
  CC50: ≥ 6.49 µM
IGROV-ET
  GI50: 1.44 µM
  TGI IGROV-ET: 3.30E−06 Molar
  CC50: ≥ 6.49 µM
SK-MEL-28
  GI50: 3.79 µM
  TGI MEL-28: 6.49E−06 Molar
  CC50: ≥ 6.49 µM
